In brackets after ≈: the same amount, converted by molar mass. Values belong to the molecule of their own block, whether it stands above or below them.
Assays:
Assay in all cases: in vitro antibacterial evaluation, MIC by broth dilution
Type in all cases: cell-based
Staphylococcus sp. = settings: broth dilution, 18 hours at 35° C.; for MIC Staphylococcus aureus (ATCC 29213): strain ATCC 29213; for MIC Staphylococcus aureus (GC 1131): strain GC 1131; for MIC Staphylococcus aureus (GC 3051): strain GC 3051; for MIC Staphylococcus aureus (GC 3053): strain GC 3053; for MIC Staphylococcus aureus (GC 4541): strain GC 4541; for MIC Staphylococcus aureus (GC 4542): strain GC 4542; for MIC Staphylococcus aureus-SMITH (GC 4543): strain GC 4543; for MIC Staphylococcus aureus (GC 4544): strain GC 4544; for MIC Staphylococcus aureus (GC 4545): strain GC 4545; for MIC Staphylococcus haemolyticus (GC 4546): strain GC 4546; for MIC Coagulase Negative Staphylococcus (GC 4547): strain GC 4547; for MIC Coagulase Negative Staphylococcus (GC 4548): strain GC 4548; for MIC Coagulase Negative Staphylococcus (GC 4549): strain GC 4549; for MIC Coagulase Negative Staphylococcus (GC 4551): strain GC 4551; for MIC Coagulase Negative Staphylococcus (GC 6257): strain GC 6257
Procedure: (§1) Methods for in vitro Antibacterial Evaluation (Table 1)
(§2) The minimum inhibitory concentration (MIC), the lowest concentration of the antibiotic which inhibits growth of the test organism, is determined by the broth dilution method using Muller-Hinton II […] (Baltimore Biological Laboratories) following the recommendations of the National Committee for Clinical Laboratory Standards [Methods for dilution antimicrobial susceptibility tests for bacteria that grow aerobically, approved standard M7-A2, National Committee for Clinical Laboratory Standards, Villanova, Pa.].
(§3) An inoculum level of 5×10^5 CFU/mL, and a range of antibiotic concentrations (64-0.06 μg/mL) is used. […] The test organisms include a spectrum of Gram-positive bacteria comprised of Staphylococcus sp., Streptococcus sp. and Enterococcus sp. These organisms include recent clinical isolates that are resistant to methicillin, penicillin and/or vancomycin.

Enterococcus sp. = settings: broth dilution, 18 hours at 35° C.
Procedure: as §1, §2, §3

Streptococcus sp. = settings: broth dilution, 18 hours at 35° C.
Procedure: as §1, §2, §3

Escherichia coli = settings: 18 hours at 35° C.
Method in brief: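 MIC is the lowest antibiotic concentration (tested 64-0.06 μg/mL) preventing growth of a 5×10^5 CFU/mL inoculum. Determined by broth dilution in Mueller-Hinton II medium following NCCLS standard M7-A2.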

MIC Staphylococcus aureus (ATCC 29213) (Staphylococcus sp.): 8 µg/mL (≈ 7.15 µM)
MIC Staphylococcus aureus (GC 1131) (Staphylococcus sp.): 8 µg/mL (≈ 7.15 µM)
MIC Staphylococcus aureus (GC 3051) (Staphylococcus sp.): 8 µg/mL (≈ 7.15 µM)
MIC Staphylococcus aureus (GC 3053) (Staphylococcus sp.): 8 µg/mL (≈ 7.15 µM)
MIC Staphylococcus aureus (GC 4541) (Staphylococcus sp.): 16 µg/mL (≈ 14.3 µM)
MIC Staphylococcus aureus (GC 4542) (Staphylococcus sp.): 8 µg/mL (≈ 7.15 µM)
MIC Staphylococcus aureus-SMITH (GC 4543) (Staphylococcus sp.): 8 µg/mL (≈ 7.15 µM)
MIC Staphylococcus aureus (GC 4544) (Staphylococcus sp.): 8 µg/mL (≈ 7.15 µM)
MIC Staphylococcus aureus (GC 4545) (Staphylococcus sp.): 8 µg/mL (≈ 7.15 µM)
MIC Coagulase Negative Staphylococcus (GC 4547) (Staphylococcus sp.): 4 µg/mL (≈ 3.58 µM)
MIC Coagulase Negative Staphylococcus (GC 4548) (Staphylococcus sp.): 8 µg/mL (≈ 7.15 µM)
MIC Coagulase Negative Staphylococcus (GC 4549) (Staphylococcus sp.): 4 µg/mL (≈ 3.58 µM)
MIC Coagulase Negative Staphylococcus (GC 4551) (Staphylococcus sp.): 8 µg/mL (≈ 7.15 µM)
MIC Coagulase Negative Staphylococcus (GC 6257) (Staphylococcus sp.): 4 µg/mL (≈ 3.58 µM)
MIC Enterococcus faecalis (ATCC 29212) (Enterococcus sp.; strain ATCC 29212): 32 µg/mL (≈ 28.6 µM)
MIC Enterococcus faecalis (GC 2242) (Enterococcus sp.; strain GC 2242): 16 µg/mL (≈ 14.3 µM)
MIC Enterococcus faecium (GC 2243) (Enterococcus sp.; strain GC 2243): 16 µg/mL (≈ 14.3 µM)
MIC Enterococcus faecalis (GC 2691) (Enterococcus sp.; strain GC 2691): 32 µg/mL (≈ 28.6 µM)
MIC Enterococcus faecalis (GC 3059) (Enterococcus sp.; strain GC 3059): 32 µg/mL (≈ 28.6 µM)
MIC Enterococcus faecalis (GC 4552) (Enterococcus sp.; strain GC 4552): 16 µg/mL (≈ 14.3 µM)
MIC Enterococcus faecalis (GC 4553) (Enterococcus sp.; strain GC 4553): 16 µg/mL (≈ 14.3 µM)
MIC Enterococcus faecalis (GC 4554) (Enterococcus sp.; strain GC 4554): 16 µg/mL (≈ 14.3 µM)
MIC Enterococcus faecium (GC 4556) (Enterococcus sp.; strain GC 4556): 32 µg/mL (≈ 28.6 µM)
MIC Enterococcus faecium (GC 4557) (Enterococcus sp.; strain GC 4557): 4 µg/mL (≈ 3.58 µM)
MIC Enterococcus avium (GC 4558) (Enterococcus sp.; strain GC 4558): 8 µg/mL (≈ 7.15 µM)
MIC Enterococcus faecalis (GC 6189) (Enterococcus sp.; strain GC 6189): 16 µg/mL (≈ 14.3 µM)
MIC Streptococcus pneumoniae (ATCC 6301) (Streptococcus sp.; strain ATCC 6301): 16 µg/mL (≈ 14.3 µM)
MIC Streptococcus pneumoniae (GC 1894) (Streptococcus sp.; strain GC 1894): 16 µg/mL (≈ 14.3 µM)
MIC Streptococcus pyogenes (GC 4563) (Streptococcus sp.; strain GC 4563): 4 µg/mL (≈ 3.58 µM)
MIC Streptococcus agalactiae (GC 4564) (Streptococcus sp.; strain GC 4564): 16 µg/mL (≈ 14.3 µM)
MIC Streptococcus pneumoniae (GC 4565) (Streptococcus sp.; strain GC 4565): 32 µg/mL (≈ 28.6 µM)
MIC Escherichia coli (ATCC 25922) (Escherichia coli; strain ATCC 25922, broth dilution): 16 µg/mL (≈ 14.3 µM)
MIC Escherichia coli (GC 4559) (Escherichia coli; strain GC 4559, broth dilution): 16 µg/mL (≈ 14.3 µM)
MIC Escherichia coli (GC 4560) (Escherichia coli; strain GC 4560, broth dilution): 4 µg/mL (≈ 3.58 µM)
SMILES: CC(c1ccccc1)C1NC(=O)CNC(=O)C(CO)NC(=O)C(C(O)C2CNC(=N)N2C2OC(CO)C(O)C(O)C2O)NC(=O)C(C(O)C2CNC(=N)N2)NC(=O)C(Cc2ccc3oc(SCc4ccccc4)nc3c2)NC1=O (stereo not drawn) [Example 45, Cyclo[3-[2-(benzylthio)-1,3-benzoxazol-5-yl]alanyl-3-(2-iminoimidazolidin-4-yl)seryl-3-(3-hexopyranosyl-2-iminoimidazolidin-4-yl)serylserylglycyl-β-methylphenylalanyl]]
MIC Staphylococcus haemolyticus (GC 4546) (Staphylococcus sp.): 4 µg/mL (≈ 3.58 µM)

MIC Staphylococcus aureus (GC 1131) (Staphylococcus sp.; inoculum 5×10^5 CFU/mL): >64 µg/mL
MIC Staphylococcus aureus (ATCC 29213) (Staphylococcus sp.): >64 µg/mL
MIC Staphylococcus aureus (GC 1131) (Staphylococcus sp.): >64 µg/mL
MIC Staphylococcus aureus (GC 3051) (Staphylococcus sp.): >64 µg/mL
MIC Staphylococcus aureus (GC 3053) (Staphylococcus sp.): >64 µg/mL
MIC Staphylococcus aureus (GC 4541) (Staphylococcus sp.): 64 µg/mL (≈ 42.4 µM)
MIC Staphylococcus aureus (GC 4542) (Staphylococcus sp.): >64 µg/mL
MIC Staphylococcus aureus-SMITH (GC 4543) (Staphylococcus sp.): >64 µg/mL
MIC Staphylococcus aureus (GC 4544) (Staphylococcus sp.): >64 µg/mL
MIC Staphylococcus aureus (GC 4545) (Staphylococcus sp.): 64 µg/mL (≈ 42.4 µM)
MIC Coagulase Negative Staphylococcus (GC 4547) (Staphylococcus sp.): 32 µg/mL (≈ 21.2 µM)
MIC Coagulase Negative Staphylococcus (GC 4548) (Staphylococcus sp.): 64 µg/mL (≈ 42.4 µM)
MIC Coagulase Negative Staphylococcus (GC 4549) (Staphylococcus sp.): 64 µg/mL (≈ 42.4 µM)
MIC Coagulase Negative Staphylococcus (GC 4551) (Staphylococcus sp.): >64 µg/mL
MIC Coagulase Negative Staphylococcus (GC 6257) (Staphylococcus sp.): 64 µg/mL (≈ 42.4 µM)
MIC Enterococcus avium (GC 4558) (Enterococcus sp.): 32 µg/mL (≈ 21.2 µM)
MIC Enterococcus faecalis (ATCC 29212) (Enterococcus sp.): >64 µg/mL
MIC Enterococcus faecalis (GC 2242) (Enterococcus sp.): >64 µg/mL
MIC Enterococcus faecalis (GC 2691) (Enterococcus sp.): >64 µg/mL
MIC Enterococcus faecalis (GC 3059) (Enterococcus sp.): >64 µg/mL
MIC Enterococcus faecalis (GC 4552) (Enterococcus sp.): >64 µg/mL
MIC Enterococcus faecalis (GC 4553) (Enterococcus sp.): 64 µg/mL (≈ 42.4 µM)
MIC Enterococcus faecalis (GC 4554) (Enterococcus sp.): >64 µg/mL
MIC Enterococcus faecalis (GC 6189) (Enterococcus sp.): >64 µg/mL
MIC Enterococcus faecium (GC 2243) (Enterococcus sp.): 64 µg/mL (≈ 42.4 µM)
MIC Enterococcus faecium (GC 4556) (Enterococcus sp.): >64 µg/mL
MIC Enterococcus faecium (GC 4557) (Enterococcus sp.): 8 µg/mL (≈ 5.3 µM)
MIC Enterococcus faecalis (ATCC 29212) (Enterococcus sp.; inoculum 5×10^5 CFU/mL, strain ATCC 29212): >64 µg/mL
MIC Enterococcus faecalis (GC 2242) (Enterococcus sp.; inoculum 5×10^5 CFU/mL, strain GC 2242): >64 µg/mL
MIC Enterococcus faecium (GC 2243) (Enterococcus sp.; inoculum 5×10^5 CFU/mL, strain GC 2243): 64 µg/mL (≈ 42.4 µM)
MIC Enterococcus faecalis (GC 2691) (Enterococcus sp.; inoculum 5×10^5 CFU/mL, strain GC 2691): >64 µg/mL
MIC Enterococcus faecalis (GC 3059) (Enterococcus sp.; inoculum 5×10^5 CFU/mL, strain GC 3059): >64 µg/mL
MIC Enterococcus faecalis (GC 4552) (Enterococcus sp.; inoculum 5×10^5 CFU/mL, strain GC 4552): >64 µg/mL
MIC Enterococcus faecalis (GC 4553) (Enterococcus sp.; inoculum 5×10^5 CFU/mL, strain GC 4553): 64 µg/mL (≈ 42.4 µM)
MIC Enterococcus faecalis (GC 4554) (Enterococcus sp.; inoculum 5×10^5 CFU/mL, strain GC 4554): >64 µg/mL
MIC Enterococcus faecium (GC 4556) (Enterococcus sp.; inoculum 5×10^5 CFU/mL, strain GC 4556): >64 µg/mL
MIC Enterococcus faecium (GC 4557) (Enterococcus sp.; inoculum 5×10^5 CFU/mL, strain GC 4557): 8 µg/mL (≈ 5.3 µM)
MIC Enterococcus avium (GC 4558) (Enterococcus sp.; inoculum 5×10^5 CFU/mL, strain GC 4558): 32 µg/mL (≈ 21.2 µM)
MIC Enterococcus faecalis (GC 6189) (Enterococcus sp.; inoculum 5×10^5 CFU/mL, strain GC 6189): >64 µg/mL
MIC Streptococcus agalactiae (GC 4564) (Streptococcus sp.): >64 µg/mL
MIC Streptococcus pneumoniae (ATCC 6301) (Streptococcus sp.): 64 µg/mL (≈ 42.4 µM)
MIC Streptococcus pneumoniae (GC 1894) (Streptococcus sp.): 64 µg/mL (≈ 42.4 µM)
MIC Streptococcus pneumoniae (GC 4565) (Streptococcus sp.): 64 µg/mL (≈ 42.4 µM)
MIC Streptococcus pyogenes (GC 4563) (Streptococcus sp.): 32 µg/mL (≈ 21.2 µM)
MIC Streptococcus pneumoniae (ATCC 6301) (Streptococcus sp.; inoculum 5×10^5 CFU/mL, strain ATCC 6301): 64 µg/mL (≈ 42.4 µM)
MIC Streptococcus pneumoniae (GC 1894) (Streptococcus sp.; inoculum 5×10^5 CFU/mL, strain GC 1894): 64 µg/mL (≈ 42.4 µM)
MIC Streptococcus pyogenes (GC 4563) (Streptococcus sp.; inoculum 5×10^5 CFU/mL, strain GC 4563): 32 µg/mL (≈ 21.2 µM)
MIC Streptococcus agalactiae (GC 4564) (Streptococcus sp.; inoculum 5×10^5 CFU/mL, strain GC 4564): >64 µg/mL
MIC Streptococcus pneumoniae (GC 4565) (Streptococcus sp.; inoculum 5×10^5 CFU/mL, strain GC 4565): 64 µg/mL (≈ 42.4 µM)
MIC Escherichia coli (ATCC 25922) (Escherichia coli): 64 µg/mL (≈ 42.4 µM)
MIC Escherichia coli (GC 4559) (Escherichia coli): 64 µg/mL (≈ 42.4 µM)
MIC Escherichia coli (GC 4560) (Escherichia coli): 8 µg/mL (≈ 5.3 µM)
SMILES: CC(c1ccccc1)C1NC(=O)CNC(=O)C(CO)NC(=O)C(C(O)C2CNC(=N)N2C2OC(CO)C(O)C(O)C2O)NC(=O)C(C(O)C2CNC(=N)N2)NC(=O)C(Cc2ccc(OC3OC(CO)C(OC4OC5COC(c6ccccc6)OC5C(O)C4O)C(O)C3O)c(I)c2)NC1=O (stereo not shown) [Example 196]
MIC Staphylococcus haemolyticus (GC 4546) (Staphylococcus sp.): 32 µg/mL (≈ 21.2 µM)

Reference: patent US6914045B2, “Glycopeptide antibiotics” (Wyeth Holdings Corporation, priority 2001, dated 2005)
